Values joined by “and” are separate entries in the source; they are usually repeats but may differ in a detail not shown here. Identical values can stand only once.
Tests used:
[1] = fluticasone-17β carboxylic acid in urine of patients before, during and after FP therapy by LC-MS/MS; assay type: in vivo, human
Procedure: Fluticasone-17β carboxylic acid was extracted from urine using an acetonitrile precipitation followed by methylene chloride liquid extraction of the supernatant. Sixty μL of the reconstituted sample extract was analyzed by LC-MS/MS (ABI 4000). The linearity, precision, recovery and limit of quantitation (LOQ) were determined. Measurement of fluticasone-17β carboxylic acid in urine collected daily from patients before (days 1-2), during (days 3-6; total dose Flovent 110 2 puffs daily), and following cessation of FP therapy (days 7-14) was conducted (n=4). The linear range of fluticasone-17β carboxylic acid measured by LC-MS/MS was 10-9510 pg/mL. The LOQ with a CV<20% was 10 pg/mL, and recovery ranged from 85.8-111.9% with a mean of 97.9%. Within-run precision testing indicated a maximum CV of 9.3% at 10.3 pg/mL. Between-run precision CVs for urine pools spiked with 3 concentrations of fluticasone-17 β carboxylic acid were 10.6% at 11.1 pg/mL, 11.2% at 500.9 pg/mL, and 8.7% at 5116 pg/mL. Detection of fluticasone-17β carboxylic acid in urine from patients prior to FP therapy was <10 pg/mL (days 1 & 2), ranged from 157-1830 pg/mL when receiving therapy (days 3-6) and was undetectable 5 days after stopping therapy (days 11-14). An eight-point calibration curve (0, 10, 25, 100, 200, 1000, 2000, and 10000 pg/mL) and three controls (10, 500 and 5000 pg/mL) were prepared in charcoal stripped-urine and included with each assay run. Aliquots of urine were centrifuged for 5 minutes at 1000g to remove particulate matter. A 1.0 mL fraction of each calibrator, control, and urine sample was transferred into an appropriately labeled 12×75 mm glass tube. Internal standard (100 μL of 40 ng/mL fluorometholone working solution per sample) was added to each calibrator, control, and urine sample followed by gentle vortexing and incubation for 5 minutes at ambient temperature. Acetonitrile with 0.1% HCl (1.5 mL/sample) was then added, and tubes were vortexed and centrifuged at 1500g for 10 minutes. […]

[2] = sensitivity and specificity of urine fluticasone 17β carboxylic acid after witnessed fluticasone propionate administration in asthma patients; assay type: in vivo, human; details: Fluticasone Administered Under Observation, 16-24 hours before sample
Procedure: In order to evaluate the sensitivity and specificity of fluticasone 17β carboxylic acid, nineteen patients with asthma were recruited. Nine of these subjects were on treatment with fluticasone propionate. As a gold standard of compliance, treatment was documented by an RN study nurse who witnessed the patients' administration of fluticasone propionate 16-24 hours prior to submission of a urine sample for the analysis of fluticasone 17 β carboxylic acid. Urine samples from ten subjects with asthma but not receiving fluticasone propionate were used as controls.

[3] = stability of fluticasone 17β carboxylic acid in pooled urine stored ambient, refrigerated or freeze/thaw; assay type: physicochemical; details: for % Diff. 3: Ambient, Day 3; for % Diff 7: Day 7
Procedure: Fluticasone 17β carboxylic acid was measured in pooled urine samples lacking preservatives that were stored at ambient temperature, were refrigerated, or were frozen and subjected to freeze/thaw cycles (Table 6).
Fluticasone 17β carboxylic acid was measured in pooled urine samples containing boric acid as a preservative that were stored at ambient temperature, were refrigerated, or were frozen and subjected to freeze/thaw cycles (Table 7).
Fluticasone 17β carboxylic acid was measured in pooled urine samples containing glacial acetic acid as a preservative that were stored at ambient temperature, were refrigerated, or were frozen and subjected to freeze/thaw cycles (Table 8).
Fluticasone 17β carboxylic acid was measured in pooled urine samples containing hydrochloric acid as a preservative that were stored at ambient temperature, were refrigerated, or were frozen and subjected to freeze/thaw cycles (Table 9).
Fluticasone 17β carboxylic acid was measured in pooled urine samples containing toluene as a preservative that were stored at ambient temperature, were refrigerated, or were frozen and subjected to freeze/thaw cycles (Table 10).

[4] = fluticasone 17β carboxylic acid measured in urine with and without preservatives; assay type: physicochemical; details: individual specimens, mean, bias
Procedure: Fluticasone 17β carboxylic acid was measured in urine samples lacking preservatives or urine samples containing one of the following preservatives: boric acid, glacial acetic acid, HCL, toluene, or sodium bicarbonate (Table 5).
In summary, non-preserved urine can be used effectively. Samples acquired with boric acid preservative indicated an individual bias of −0.6 to 5.0% and a mean bias of 1.4% from non-preserved urine specimen. Samples acquired in glacial acetic acid preservative indicated an individual bias of −18.9 to 17.1% and a mean bias of −1.2% from non-preserved urine specimen. Samples acquired in HCL preservative indicated an individual bias of −14.5 to 9.1% and a mean bias of −5.8% from non-preserved urine specimen. Samples acquired in sodium bicarbonate preservative indicated an individual bias of −94.7 to −92.5% and a mean bias of −93.8% from non-preserved urine specimen. Samples acquired in toluene preservative indicated an individual bias of −10.6 to 9.8% and a mean bias of 0.3% from non-preserved urine specimen. Thus, urine containing boric acid, glacial acetic acid, HCL, or toluene are acceptable. Urine containing sodium bicarbonate preservative is not as acceptable.

## CCC(=O)O[C@]1(C(=O)O)[C@H](C)C[C@H]2[C@@H]3C[C@H](F)C4=CC(=O)C=C[C@]4(C)[C@@]3(F)[C@@H](O)C[C@@]21C [Fluticasone 17β carboxylic acid]
[1]; 5 days after stopping therapy (days 11-14)
  fluticasone-17β carboxylic acid in urine: undetectable
[1]; patients prior to FP therapy (days 1 & 2)
  fluticasone-17β carboxylic acid in urine: < 10 pg/mL
[1]; patients receiving therapy (days 3-6; Flovent 110 2 puffs daily)
  fluticasone-17β carboxylic acid in urine: 157 to 1830 pg/mL
[2]
  Negative Urine (number of subjects): 0
  Positive Urine (number of subjects): 9
[3]; boric acid-preserved urine, ambient temperature
  time stable: 7 days
[3]; boric acid-preserved urine, frozen
  freeze-thaw cycles stable: up to 1 freeze-thaw cycle
[3]; boric acid-preserved urine, refrigerated
  time stable: 3 days
[3]; glacial acetic acid-preserved urine, ambient temperature
  time stable: 7 days
[3]; glacial acetic acid-preserved urine, frozen
  freeze-thaw cycles stable: up to 2 freeze-thaw cycles
[3]; hydrochloric acid-preserved urine, ambient temperature
  time stable: 7 days
[3]; hydrochloric acid-preserved urine, frozen
  freeze-thaw cycles stable: up to 1 freeze-thaw cycle
[3]; hydrochloric acid-preserved urine, refrigerated
  time stable: 3 days
[3]; non-preserved urine, ambient temperature
  time stable: 3 days
[3]; non-preserved urine, frozen
  freeze-thaw cycles stable: up to 3 freeze-thaw cycles
[3]; non-preserved urine, refrigerated
  time stable: 7 days
[3]; toluene-preserved urine, immediately frozen
  freeze-thaw cycles stable: up to 3 freeze-thaw cycles
[3]; urine Boric Acid
  % Diff. 3: 1.2% and −1.3% and −7.9%
[3]; urine Boric Acid, mean
  % Diff. 3: −2.7%
[3]; urine Boric Acid, Freeze/Thaw, F/T 1
  % Diff. 1: −9.3% and −5.4% and −10.1%
[3]; urine Boric Acid, Freeze/Thaw, F/T 1, mean
  % Diff. 1: −8.3%
[3]; urine Boric Acid, Refrigerated
  % Diff 7: −14.5% and −10.1% and −16.3%
[3]; urine Boric Acid, Refrigerated, mean
  % Diff 7: −13.7%
[3]; urine HCL, Refrigerated, Day 1
  % Diff. 1: −4.6% and −2.6% and −9.5%
[3]; urine HCL, Refrigerated, Day 1, mean
  % Diff. 1: −5.6%
[3]; urine HCL, Refrigerated
  % Diff 7: −17.1% and −8.5%
[3]; urine HCL, Refrigerated, mean
  % Diff 7: −11.4%
[3]; urine Toluene, Refrigerated, Day 1
  % Diff. 1: −19.5% and −12.4% and −11.4%
[3]; urine Toluene, Refrigerated, Day 1, mean
  % Diff. 1: −14.4%
[3]; urine no pres, Freeze/Thaw, F/T 1
  % Diff. 1: 0.0% and −6.6% and −6.1%
[3]; urine no pres, Freeze/Thaw, F/T 1, mean
  % Diff. 1: −4.2%
[3]; urine no pres, Refrigerated, Day 1
  % Diff. 1: −7.5% and −4.4% and −11.5%
[3]; urine no pres, Refrigerated, Day 1, mean
  % Diff. 1: −7.8%
[4]; urine with HCL
  % Difference between No Pres & HCL: −14.5 to 9.1% and −5.8% and 9.1% and −12.1% and −14.5%
[4]; urine with boric acid
  % Difference between No Pres & BA: −0.6 to 5.0% and 1.4% and 5.0% and −0.6% and −0.3%
[4]; urine with glacial acetic acid
  % Difference between No Pres & GAA: −18.9 to 17.1% and −1.2% and 17.1% and −1.7% and −18.9%
[4]; urine with sodium bicarbonate
  % Difference between No Pres & Na2CO3: −94.7 to −92.5% and −93.8% and −94.2% and −94.7% and −92.5%
[4]; urine with toluene
  % Difference between No Pres & Toluene: 0.3% and −10.6 to 9.8% and −10.6% and 9.8% and 1.6%

From patent US20110001042A1, “ASSESSING TREATMENT COMPLIANCE” (priority 2007, published 2011)
